The record followed here is BindingDB's records for doi:10.1074/jbc.M809633200 (United States Army Medical Research Institute of Infectious …, 2009).

The assay has as its target T1, Receptor-type tyrosine-protein phosphatase C (Homo sapiens, UniProt P08575).
T1 sequence (P08575 whole entry): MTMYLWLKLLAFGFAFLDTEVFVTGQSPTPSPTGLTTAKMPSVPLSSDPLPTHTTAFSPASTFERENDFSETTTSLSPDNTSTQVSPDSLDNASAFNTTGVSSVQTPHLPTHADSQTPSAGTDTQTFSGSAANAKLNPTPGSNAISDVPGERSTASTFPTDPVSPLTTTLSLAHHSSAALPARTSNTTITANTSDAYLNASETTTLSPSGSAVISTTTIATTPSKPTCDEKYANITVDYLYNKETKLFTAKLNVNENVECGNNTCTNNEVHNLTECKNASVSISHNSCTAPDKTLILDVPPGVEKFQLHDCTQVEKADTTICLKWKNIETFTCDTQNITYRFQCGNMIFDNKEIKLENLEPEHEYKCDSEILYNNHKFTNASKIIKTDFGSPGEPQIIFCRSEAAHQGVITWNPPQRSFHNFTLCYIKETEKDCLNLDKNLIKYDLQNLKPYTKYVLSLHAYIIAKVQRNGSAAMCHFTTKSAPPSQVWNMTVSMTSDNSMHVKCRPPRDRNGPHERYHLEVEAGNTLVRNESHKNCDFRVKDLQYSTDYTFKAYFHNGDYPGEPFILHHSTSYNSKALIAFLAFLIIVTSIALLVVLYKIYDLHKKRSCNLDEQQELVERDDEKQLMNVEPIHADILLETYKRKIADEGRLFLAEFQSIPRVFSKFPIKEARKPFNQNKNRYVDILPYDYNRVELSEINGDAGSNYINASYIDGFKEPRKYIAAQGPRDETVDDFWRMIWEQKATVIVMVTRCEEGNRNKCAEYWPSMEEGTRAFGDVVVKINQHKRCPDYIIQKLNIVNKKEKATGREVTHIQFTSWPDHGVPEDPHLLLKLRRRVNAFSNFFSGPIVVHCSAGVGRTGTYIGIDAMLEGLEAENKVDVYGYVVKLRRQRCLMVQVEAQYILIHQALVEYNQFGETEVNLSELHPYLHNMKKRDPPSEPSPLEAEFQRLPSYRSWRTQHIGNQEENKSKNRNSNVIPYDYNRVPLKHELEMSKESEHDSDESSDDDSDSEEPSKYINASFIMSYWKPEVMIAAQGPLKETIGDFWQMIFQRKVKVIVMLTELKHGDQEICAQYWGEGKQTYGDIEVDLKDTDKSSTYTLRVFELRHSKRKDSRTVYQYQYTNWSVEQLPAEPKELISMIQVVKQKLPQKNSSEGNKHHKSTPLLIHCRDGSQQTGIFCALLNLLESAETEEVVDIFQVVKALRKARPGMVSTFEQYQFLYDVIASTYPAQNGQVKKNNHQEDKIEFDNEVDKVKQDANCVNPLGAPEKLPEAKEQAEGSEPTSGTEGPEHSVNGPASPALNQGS
The experiment in a line: Phosphatase Activity Assay. From the text: Protein phosphatases were purchased from Upstate Biotechnology (Lake Placid, NY).

pIC50: −log10 of the molar value.

Consider `O=C1C(=O)c2ccccc2-c2ccccc21`, for which the pIC50 (commonly −log10 of the IC50, conventionally taken in molar units) is 6.52.

Turning to `O=C1C(=O)c2cccc([N+](=O)[O-])c2-c2ccccc21` [4-Nitro-phenanthrene-9,10 dione], the pIC50 was 5.22.

With `CC(C)(C)C(=O)Nc1ccc2c(c1)C(=O)C(=O)c1ccccc1-2` [N-(9,10-Dioxo-9,10-dihydro-phenanthrene-2-yl)-2,2-dimethyl-propionamide], the pIC50 was 6.40.
